Consider 8 compounds from patent US7371536B2, “Methods for transporting vitamin C” (priority 1999, dated 2008).

Common to all, as to type: cell-based
The target of assay [1] is T1, rat SVCT1 (Rattus norvegicus, UniProt Q9WTW7).
T1 construct: expressed in transfected cells; host or cells: Xenopus laevis oocytes injected with cRNA
Put plainly: L-[14C]ascorbic acid radiotracer uptake in Xenopus oocytes expressing rat SVCT1. On the procedure:
(§1) Rat SVCT1 and SVCT2 clones were obtained by isolating SVCT1 cDNA from rat kidney by expression cloning as described in Hediger et al., Methods Enzymol. 296:17-52 (1998). The SVCT2 cDNA was subsequently isolated by PCR-based homology screening of a rat brain cDNA library. A 2.5-kb rabbit cDNA with 96% identity to residues 96-505 of the rat SVCT2 was obtained by RT-PCR. Radiotracer and voltage-clamp experiments were performed (at 22° C.) in Xenopus oocytes two to seven days after injection with ˜25 ng of SVCT1 or SVCT2 cRNA synthesized in vitro. Radiotracer uptake was determined by incubating 6-10 oocytes for 30 or 60 min in standard 100 mM Na^+ or Na^+-free media with 10-600 μM L-[^14C]ascorbic acid.
(§2) Functional characterization of SVCT1 and SVCT2 in Xenopus oocytes—Oocytes were isolated from Xenopus laevis (under 2-aminoethylbenzoate anaesthesia), treated with collagenase A and stored at 18° C. in modified Barths' medium. Oocytes were injected with ≈25 ng of SVCT1 or SVCT2 cRNA synthesized in vitro, or water only (control), and incubated 2-7 days before radiotracer or voltage-clamp experiments were performed. Standard Na^+ uptake medium comprised 100 mM NaCl, 2 mM KCl, 1 mM CaCl2, 1 mM MgCl2, 10 mM HEPES (pH 7.5 with Tris base). For Na^+-free or low-Na^+ media, NaCl was replaced by equimolar choline chloride; likewise, Cl^− was replaced by gluconate for Cl^−-free medium. For pH-sensitivity experiments, Na^+ media were buffered at pH 5.5-8.0 using 0-5 mM MES, 0-5 mM HEPES and 0-5 mM Tris base. L-Ascorbic acid-containing solutions were freshly-prepared (without dithiothreitol) and used immediately.
(§3) Radiotracer uptake was determined by incubating 6-10 oocytes for 30 or 60 min in standard Na^+ or Na^+-free media (at 22° C.) with 10-600 μM L-[1-^14C]ascorbic acid (final specific activity 0.3 GBq/mmol). Oocytes were solubilized with 10% SDS and [^14C]-content was measured by liquid scintillation counting. A two-microelectrode voltage-clamp was used to measure currents in control oocytes and oocytes injected with rat SVCT1 or rat SVCT2 cRNA. Microelectrodes (resistance 0.5-5 MΩ) were filled with 3 M KCl. Oocytes were superfused at 22° C. in standard Na^+ medium and clamped at a holding potential (Vh) of −50 mV. For continuous current monitoring at Vh=−50 mV, the current was low-pass filtered at 20 Hz (sampling at 1 Hz). Additionally, step-changes in membrane potential (Vm) were applied (from +50 mV to −150 mV in 20-mV increments), each for a duration of 100 ms, before and after the addition of substrate; current was low-pass filtered at 500 Hz and digitized at 5 kHz. Test solutions were always washed out with substrate-free medium (100 mM choline chloride) at pH 7.5 for several minutes. Steady-state data (obtained by averaging the points over the final 16.7 ms at each Vm step when step-changes were applied) were fitted to equation (1) below, for which I is the evoked current (i.e., the difference in steady-state current measured in the presence and absence of substrate), Imax the derived current maximum, S the concentration of substrate S (Na^+ or L-ascorbic acid),
(§4) [formula] the substrate concentration at which current was half-maximal, and nH the Hill coefficient for S. (For radiotracer experiments, I was replaced with velocity V and Imax replaced with the derived maximal velocity, Vmax.)

Assay [2] has as its target T2, human SVCT1 (Homo sapiens, UniProt Q9UHI7).
T2 construct: expressed in transfected cells; host or cells: Xenopus laevis oocytes injected with cRNA (vector pTLN2)
Put plainly: Two-microelectrode voltage-clamp of Xenopus oocytes expressing human SVCT1. The settings on record: for transport / substrate selectivity (in words): 500 μM. The protocol:
(§5) Functional characterization in Xenopus oocytes—SVCT1 and SVCT2 cDNAs were subcloned into the pTLN2 vector (to improve functional expression in oocytes) and used for cRNA synthesis in vitro using the MEGAscript kit and T7 RNA polymerase (from Ambion). Oocytes were isolated from Xenopus laevis, treated with collagenase A and maintained at 18° C. in modified Barths' medium. Oocytes were injected with 15 ng SVCT1 or SVCT2 cRNA or water only. The radiotracer uptake and voltage-clamp experiments described below were conducted 2-5 days post-injection in standard medium of composition 100 mM NaCl, 2 mM KCl, 1 mM CaCl2, 1 mM MgCl2, and 10 mM HEPES (buffered to pH 7.5 with Tris base). For low-Na^+ or Na^+-free media, NaCl was replaced with choline chloride. For pH-dependence experiments, Na^+ media were buffered to between pH 5.5 and pH 8.0 using 0-5 mM MES, 0-5 mM HEPES and 0-5 mM Tris base. L-Ascorbic acid-containing solutions were always freshly prepared and used immediately. Radiotracer uptake was determined by incubating 8-12 oocytes for 30 min (within the time-course of linear uptake) in standard Na^+, low-Na^+ or Na^+-free media with 10-500 μM L-[1-^14C]ascorbic acid (final specific activity ≈0.3 GBq/mmol). Oocytes were solubilized with 10% SDS and carbon-14 content measured by liquid scintillation counting. A two-microelectrode voltage-clamp was used to measure currents associated with SVCT1 expressed in oocytes. Oocytes were superfused at 22° C. in standard Na^+ medium and clamped at −50 mV. Current was continuously monitored by sampling at 1 Hz. Test solutions were always washed out with substrate-free, Na^+-free medium at pH 7.5 for several minutes. Once again, saturation kinetics data were fit to a modified Hill equation in which I and Imax were replaced by uptake V and maximal velocity Vmax for analysis of radiotracer uptake data.

The target of assay [3] is T1, rat SVCT1. The assay can be described thus: Two-microelectrode voltage-clamp of Xenopus oocytes expressing rat SVCT1. The settings on record: for evoked current / substrate selectivity (in words): oocytes expressing SVCT1; for evoked current relative to that for L-ascorbic acid: substrate selectivity, FIG. 4F. The protocol: as §1, with “A 2.5-kb rabbit cDNA with 96% identity to residues 96-505 of the rat SVCT2 was obtained by RT-PCR.” left out
as §2, §3, §4

The target in assay [4] is T2, human SVCT1. The assay can be described thus: L-[14C]ascorbic acid radiotracer uptake in Xenopus oocytes expressing human SVCT1. The settings on record: data not shown. The protocol: as §5, with “Radiotracer uptake was determined by incubating 8-12 oocytes for 30 min (within the time-course of linear uptake) in standard Na^+, low-Na^+ or Na^+-free media with 10-500 μM L-[1-^14C]ascorbic acid (final specific activity ≈0.3 GBq/mmol).” left out

The target in a further assay is T3, rat SVCT2 (Rattus norvegicus, UniProt Q9WTW8).
T3 construct: expressed in transfected cells; host or cells: Xenopus laevis oocytes injected with cRNA (vector pTLN2)
T3 sequence (Q9WTW8 whole entry): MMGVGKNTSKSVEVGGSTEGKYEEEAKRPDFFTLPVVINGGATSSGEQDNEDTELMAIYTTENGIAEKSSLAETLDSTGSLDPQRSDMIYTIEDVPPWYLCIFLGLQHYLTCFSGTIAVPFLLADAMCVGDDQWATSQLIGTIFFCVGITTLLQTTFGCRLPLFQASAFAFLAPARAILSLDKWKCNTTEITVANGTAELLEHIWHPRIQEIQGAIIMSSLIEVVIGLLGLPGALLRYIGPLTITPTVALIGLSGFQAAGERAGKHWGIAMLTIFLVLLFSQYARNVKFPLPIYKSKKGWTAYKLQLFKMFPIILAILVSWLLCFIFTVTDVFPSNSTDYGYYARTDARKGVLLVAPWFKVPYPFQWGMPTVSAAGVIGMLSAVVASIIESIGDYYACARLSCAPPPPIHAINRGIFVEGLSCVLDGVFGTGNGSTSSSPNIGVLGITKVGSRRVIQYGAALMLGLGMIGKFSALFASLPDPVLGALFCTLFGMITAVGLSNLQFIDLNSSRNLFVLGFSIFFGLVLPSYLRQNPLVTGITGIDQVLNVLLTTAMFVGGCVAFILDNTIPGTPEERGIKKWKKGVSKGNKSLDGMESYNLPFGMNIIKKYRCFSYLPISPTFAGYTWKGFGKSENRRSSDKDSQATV
Put plainly: L-[14C]ascorbic acid radiotracer uptake in Xenopus oocytes expressing rat SVCT2. The protocol: as §1, §2
as §3, with “Additionally, step-changes in membrane potential (Vm) were applied (from +50 mV to −150 mV in 20-mV increments), each for a duration of 100 ms, before and after the addition of substrate; current was low-pass filtered at 500 Hz and digitized at 5 kHz. Test solutions were always washed out with substrate-free medium (100 mM choline chloride) at pH 7.5 for several minutes.” left out, “acid), […]” for “acid),”

Molecules are shown by their SMILES.

T1 sequence (Q9WTW7 whole entry): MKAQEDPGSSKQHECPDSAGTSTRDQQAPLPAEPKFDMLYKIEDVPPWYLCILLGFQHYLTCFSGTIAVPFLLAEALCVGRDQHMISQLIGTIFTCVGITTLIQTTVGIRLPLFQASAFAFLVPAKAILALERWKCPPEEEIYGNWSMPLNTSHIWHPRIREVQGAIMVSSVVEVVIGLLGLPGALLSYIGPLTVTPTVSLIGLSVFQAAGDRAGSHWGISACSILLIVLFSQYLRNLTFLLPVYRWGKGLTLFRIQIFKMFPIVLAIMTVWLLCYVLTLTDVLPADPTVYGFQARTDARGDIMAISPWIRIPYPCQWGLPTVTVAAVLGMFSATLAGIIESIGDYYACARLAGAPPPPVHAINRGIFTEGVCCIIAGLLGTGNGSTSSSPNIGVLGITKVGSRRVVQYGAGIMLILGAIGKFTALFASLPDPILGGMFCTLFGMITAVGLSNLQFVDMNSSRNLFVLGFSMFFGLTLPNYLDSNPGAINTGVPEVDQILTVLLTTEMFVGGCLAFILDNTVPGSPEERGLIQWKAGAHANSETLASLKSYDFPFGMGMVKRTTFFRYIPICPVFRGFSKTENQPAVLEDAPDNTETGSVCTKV
T2 sequence (Q9UHI7 whole entry): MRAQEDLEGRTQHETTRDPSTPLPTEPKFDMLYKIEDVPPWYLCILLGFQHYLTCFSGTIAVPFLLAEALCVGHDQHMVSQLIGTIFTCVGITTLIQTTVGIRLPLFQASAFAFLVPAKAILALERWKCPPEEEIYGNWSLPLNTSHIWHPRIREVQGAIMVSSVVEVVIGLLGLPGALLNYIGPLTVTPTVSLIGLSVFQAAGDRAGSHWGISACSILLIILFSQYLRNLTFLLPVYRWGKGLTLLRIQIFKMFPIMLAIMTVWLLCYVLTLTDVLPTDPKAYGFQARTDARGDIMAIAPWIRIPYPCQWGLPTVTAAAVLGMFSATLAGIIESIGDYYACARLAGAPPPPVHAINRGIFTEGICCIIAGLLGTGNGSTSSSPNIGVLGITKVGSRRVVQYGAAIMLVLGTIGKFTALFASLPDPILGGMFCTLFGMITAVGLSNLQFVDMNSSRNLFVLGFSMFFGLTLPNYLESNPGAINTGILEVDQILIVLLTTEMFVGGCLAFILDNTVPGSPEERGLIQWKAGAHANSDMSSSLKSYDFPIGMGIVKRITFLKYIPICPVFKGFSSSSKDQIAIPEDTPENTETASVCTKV

As for `O=C(CCc1ccc(O)cc1)c1c(O)cc(O)cc1O` [phloretin], the “inhibition of SVCT1-mediated L-[14C]ascorbic acid uptake (in words)” value against rat SVCT1 [1] is reported as “inhibited”. The “mode of inhibition of L-[14C]ascorbic acid uptake” value on rat SVCT1 [1] (Dixon analysis) is recorded as “non-competitive inhibitor”. The Ki on rat SVCT1 [1] (FIG. 4I, read-out: Ki, Dixon analysis of L-[14C]ascorbic acid uptake) is about 65 µM; at rat SVCT1 [3] (uniport mode, absence of L-ascorbic acid, read-out: apparent Ki, inhibition of the Na^+ leak current), about 100 µM. Moreover, on human SVCT1 [2] (FIG. 8A, 100 μM phloretin), the “inhibition of the L-ascorbic acid-evoked current (in words)” value was “potent inhibitor”. Further, the “block of the Na^+ leak current (in words)” value at human SVCT1 [2] (absence of L-ascorbic acid or other substrate) is “blocked”. For the same compound, the “block of the inward current evoked by L-ascorbic acid” value at rat SVCT1 [3] (FIG. 4H) is “blocked”. Further, on rat SVCT1 [3], the “evoked current / substrate selectivity (in words)” value is recorded as “sizable outward current”. Also, on human SVCT1 [4], the “inhibition of L-[14C]ascorbic acid uptake” value is “≈ 80%”. The “inhibition of SVCT2-mediated L-[14C]ascorbic acid uptake (in words)” value at rat SVCT2 is given as “inhibited”.

As for `O=c1[nH]c(=O)c2[nH]cnc2[nH]1` [xanthine], the “inhibition of SVCT1-mediated L-[14C]ascorbic acid uptake (in words)” value against rat SVCT1 [1] is given as “modest inhibition”. On rat SVCT1 [3], the “evoked current / substrate selectivity (in words)” value is given as “tiny outward currents”. Moreover, the “inhibition of SVCT2-mediated L-[14C]ascorbic acid uptake (in words)” value at rat SVCT2 is recorded as “modest inhibition”.

Regarding `O=C1O[C@H]([C@@H](O)CO)[C@H](O)[C@@H]1O` [L-gulono-γ-lactone], at human SVCT1 [2] (−50 mV), the “transport / substrate selectivity (in words)” value is reported as “excluded”. For the same compound, the “evoked current / substrate selectivity (in words)” value on rat SVCT1 [3] is “excluded”.

On to `O=C1O[C@H]([C@@H](O)CO)C(=O)C1=O` [dehydroascorbic acid], for which, on human SVCT1 [2] (−50 mV), the “transport / substrate selectivity (in words)” value was “barely transported”. Besides, the “evoked current relative to that for L-ascorbic acid” value on rat SVCT1 [3] was “≈ 5%”.

Regarding `O=C(CCc1ccc(O)cc1)c1c(O)cc(O)cc1O[C@@H]1O[C@H](CO)[C@@H](O)[C@H](O)[C@H]1O` [phlorizin], the “inhibition of SVCT1-mediated L-[14C]ascorbic acid uptake (in words)” value against rat SVCT1 [1] was “modest inhibition”. Besides, on rat SVCT1 [3], the “evoked current / substrate selectivity (in words)” value was “tiny outward currents”. For the same compound, at rat SVCT2, the “inhibition of SVCT2-mediated L-[14C]ascorbic acid uptake (in words)” value is “modest inhibition”.

In the case of `CC(=O)Oc1ccccc1C(=O)O` [aspirin, acetyl-salicylic acid], the “inhibition of SVCT1-mediated L-[14C]ascorbic acid uptake (in words)” value against rat SVCT1 [1] is given as “modest inhibition”. Moreover, the “evoked current / substrate selectivity (in words)” value on rat SVCT1 [3] is on record as “tiny outward currents”. In addition, the “inhibition of L-[14C]ascorbic acid uptake (in words)” value at human SVCT1 [4] was “not significantly inhibited”. The “inhibition of SVCT2-mediated L-[14C]ascorbic acid uptake (in words)” value against rat SVCT2 is listed as “modest inhibition”.

`O=C[C@H](O)[C@@H](O)[C@H](O)[C@H](O)CO` [D-glucose]: the “transport / substrate selectivity (in words)” value at human SVCT1 [2] (−50 mV) was “excluded”. In addition, the “evoked current / substrate selectivity (in words)” value on rat SVCT1 [3] was “excluded”. The “inhibition of L-[14C]ascorbic acid uptake (in words)” value at human SVCT1 [4] is “not significantly inhibited”.

With `O=C1O[C@H]([C@H](O)CO)C(O)=C1O` [D-isoascorbic acid], on human SVCT1 [2] (each at 500 μM, −50 mV), the “evoked current relative to that of L-ascorbic acid” value is “about 15%”. For the same compound, the “K0.5 based on evoked currents” value at human SVCT1 [2] (−50 mV) came out at 2.7 ± 1.2 mM. The “evoked current relative to that for L-ascorbic acid” value at rat SVCT1 [3] is recorded as “≈ 30%”.
